Blank lines part the entries; values can stand above or below the compound they belong to.
What was measured:
PI3Kdelta = PI3Kdelta (Homo sapiens (Human), UniProt O00329); assay: HTRF PI3K biochemical assay, delta isoform; settings: 0.3 nM enzyme, 100 uM ATP, 5 uM PIP2, form screened per table (Neutral or TFA salt)
Excerpt: (§1) HTRF PI3K Biochemical Assay to Measure Intrinsic Potency of Compound Inhibitors
(§2) The PI3-Kinase biochemical assays were developed to measure the intrinsic potency and compound dependent inhibition of the alpha, beta, delta, and gamma PI3K isoform enzymes. This assay was developed and further optimized from a kit produced by Upstate (Millipore catalog #33-047) (Millipore Sigma. Billerica Mass., USA) and has been configured for high throughput screening (HTS) and structure-activity relationship (SAR) screening. Briefly, this procedure exploits the exquisite specificity and high affinity binding of enzyme reaction […] phosphatidyl(3,4,5)triphosphate (PIP3) to the GRP1 pleckstrin homology (PH) domain to generate the signal. In the absence of PIP3, an HTRF (Homogeneous Time-Resolved Fluorescence energy transfer) complex is formed consisting of europium (Eu)-labeled anti-GST, GSTtagged GRP1-PH domain, biotin-PIP3 (biotinylated-PIP3) and streptavidin conjugated APC (Allophycocyanin). The native PIP3 produced by PI3-Kinase activity disrupts in a competitive manner the biotin-PIP3 from the pleckstrin homology (PH) domain, resulting in the loss of energy transfer (HTRF complex) and a decrease in the signal. The format of this assay is the same for all 4 isoforms of PI3K; the differences lie in the concentration of enzyme used to achieve robust assay window. The alpha, beta, and delta assays are run at 0.5, 1, and 0.3 nM enzymes and the gamma assay is run at 5 nM enzyme. The ATP concentration is 100 uM in the alpha, beta, and delta assays and 50 uM adenosine triphosphate (ATP) in the gamma assay. All reactions are run at 5 uM PIP2.
(§3) Compounds are serially diluted (3-fold in 100% DMSO) across a 384-well polypropylene source plated from column 3 to column 12 and column 13 to column 22, to yield 10 concentration dose response for each test compound. Columns 1, 2, 23 and 24 contain either only DMSO or pharmacological known control inhibitor. Once titrations are made, 2.5 nL of the compounds on 384 well plates are reformatted and transferred by acoustic dispense in quadruplicates to a 1536 assay plate (Greiner) to assay across all four PI3K isoform enzymes.
(§4) The PI3-Kinase biochemical assay was optimized using the HTRF kit provided by Upstate (Millipore). The assay kit contains six reagents: 1) 4×Reaction Buffer; 2) native PIP2 (substrate); 3) Stop (EDTA); 4) Detection Mix A (Streptavidin-APC); 5) Detection Mix B (Eu-labeled Anti-GST plus GST-tagged PH-domain): 6) Detection Mix C. In addition, the following items were obtained or purchased; PI3Kinase (catalog #'s alpha 14-602, beta 14-603, gamma 14-558 and delta 14-604 from Upstate Biotechnology now EMD Millipore, Mahopac, N.Y., USA), dithiothreitol (Sigma-Aldrich Corp. (St. Louis, Mo., USA) Catalog #D-5545), Adenosine-5′ triphosphate (InVitrogen (Waltham, Mass., USA), Cat#AS001 Å), native PIP3 (PI(3,4,5)P3, diC8, H^+, CELLSIGNALS, INC., (Columbus, Ohio, USA) Cat #907) DMSO ((Sigma-Aldrich Corp. (St. Louis. Mo., USA) Catalog #472301).
(§5) PI3Kinase Reaction Buffer is prepared by dilution the stock 1:4 with de-ionized water. DTT (DL-Dithiothreitol), phosphatidylinositol 4,5-bisphosphate (PIP2) and Biotin-PIP3 were added to 1536 assay plate at a final concentration of 5 mM, […] and 25 nM on the day of use. Enzyme addition and compound pre-incubation are initiated by the addition of 1.25 ul of PI3K (at twice its final concentration) in the 1× reaction buffer to all wells using a BioRaptor™. Plates are incubated at room temperature for 15 minutes. Reactions are initiated by addition of 1.25 ul of 2× substrate solution (PIP2 and ATP in 1× reaction buffer) using BioRaptor™. Plates are incubated in humidified chamber at room temperature for one hour. Reactions are quenched by addition of 0.625 uL of stop solution to all wells using the BioRaptor™. […]

PI3Kalpha = PI3Kalpha (Homo sapiens (Human), UniProt P42336); assay: HTRF PI3K biochemical assay, alpha isoform (for selectivity ratio); settings: ratio PI3K-alpha IC50 value / PI3K-delta IC50 value
PI3Kalpha, sequence (P42336 whole entry, canonical isoform): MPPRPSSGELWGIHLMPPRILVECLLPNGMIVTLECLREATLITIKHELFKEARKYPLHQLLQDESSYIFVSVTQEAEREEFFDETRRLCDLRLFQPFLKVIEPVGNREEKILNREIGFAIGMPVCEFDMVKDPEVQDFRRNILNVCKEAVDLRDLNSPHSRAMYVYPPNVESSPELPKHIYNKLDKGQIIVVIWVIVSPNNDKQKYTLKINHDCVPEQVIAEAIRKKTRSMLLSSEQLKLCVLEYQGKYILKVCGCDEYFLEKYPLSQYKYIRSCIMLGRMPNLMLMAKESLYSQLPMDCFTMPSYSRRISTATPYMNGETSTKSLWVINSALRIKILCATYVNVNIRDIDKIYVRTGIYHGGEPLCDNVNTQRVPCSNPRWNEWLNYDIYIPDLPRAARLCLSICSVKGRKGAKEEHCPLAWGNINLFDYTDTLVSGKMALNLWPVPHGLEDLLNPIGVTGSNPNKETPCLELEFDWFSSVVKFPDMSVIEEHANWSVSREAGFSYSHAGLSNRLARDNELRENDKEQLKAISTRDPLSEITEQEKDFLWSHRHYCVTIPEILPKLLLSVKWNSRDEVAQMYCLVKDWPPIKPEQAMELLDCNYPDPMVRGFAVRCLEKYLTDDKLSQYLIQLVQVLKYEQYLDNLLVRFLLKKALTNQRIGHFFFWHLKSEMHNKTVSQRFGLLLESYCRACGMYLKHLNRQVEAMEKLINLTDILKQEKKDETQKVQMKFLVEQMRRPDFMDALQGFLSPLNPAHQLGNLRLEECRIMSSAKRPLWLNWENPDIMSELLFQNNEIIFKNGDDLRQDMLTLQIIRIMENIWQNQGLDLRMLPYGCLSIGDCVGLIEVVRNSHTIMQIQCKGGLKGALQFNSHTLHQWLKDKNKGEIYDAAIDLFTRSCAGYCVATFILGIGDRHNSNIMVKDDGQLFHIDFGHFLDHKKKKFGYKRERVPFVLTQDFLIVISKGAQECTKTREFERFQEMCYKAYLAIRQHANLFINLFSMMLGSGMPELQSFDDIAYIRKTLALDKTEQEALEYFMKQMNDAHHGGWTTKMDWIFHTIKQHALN
PI3Kalpha, sequence (P27986 whole entry partner, canonical isoform): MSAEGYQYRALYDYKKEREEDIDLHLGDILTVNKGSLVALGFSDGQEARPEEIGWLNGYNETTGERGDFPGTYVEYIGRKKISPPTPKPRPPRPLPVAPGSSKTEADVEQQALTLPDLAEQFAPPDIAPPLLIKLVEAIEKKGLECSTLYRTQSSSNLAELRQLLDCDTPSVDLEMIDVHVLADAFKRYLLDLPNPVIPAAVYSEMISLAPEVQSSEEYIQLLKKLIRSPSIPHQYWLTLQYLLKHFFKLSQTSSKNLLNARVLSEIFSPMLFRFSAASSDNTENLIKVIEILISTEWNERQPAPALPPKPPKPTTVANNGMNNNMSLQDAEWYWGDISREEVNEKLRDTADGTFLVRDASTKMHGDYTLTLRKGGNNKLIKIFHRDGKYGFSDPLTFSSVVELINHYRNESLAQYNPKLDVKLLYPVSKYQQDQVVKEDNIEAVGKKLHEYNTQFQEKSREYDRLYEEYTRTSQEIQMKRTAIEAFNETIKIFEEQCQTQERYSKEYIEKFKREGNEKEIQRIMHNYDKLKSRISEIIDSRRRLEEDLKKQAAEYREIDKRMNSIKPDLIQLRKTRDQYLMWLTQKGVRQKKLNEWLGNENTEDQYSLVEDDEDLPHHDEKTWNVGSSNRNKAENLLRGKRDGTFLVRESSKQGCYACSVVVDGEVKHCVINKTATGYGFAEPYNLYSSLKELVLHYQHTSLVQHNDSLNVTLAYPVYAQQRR
Excerpt: as §1, §2, §3, §4, §5

PI3Kdelta, sequence (O00329 whole entry, canonical isoform): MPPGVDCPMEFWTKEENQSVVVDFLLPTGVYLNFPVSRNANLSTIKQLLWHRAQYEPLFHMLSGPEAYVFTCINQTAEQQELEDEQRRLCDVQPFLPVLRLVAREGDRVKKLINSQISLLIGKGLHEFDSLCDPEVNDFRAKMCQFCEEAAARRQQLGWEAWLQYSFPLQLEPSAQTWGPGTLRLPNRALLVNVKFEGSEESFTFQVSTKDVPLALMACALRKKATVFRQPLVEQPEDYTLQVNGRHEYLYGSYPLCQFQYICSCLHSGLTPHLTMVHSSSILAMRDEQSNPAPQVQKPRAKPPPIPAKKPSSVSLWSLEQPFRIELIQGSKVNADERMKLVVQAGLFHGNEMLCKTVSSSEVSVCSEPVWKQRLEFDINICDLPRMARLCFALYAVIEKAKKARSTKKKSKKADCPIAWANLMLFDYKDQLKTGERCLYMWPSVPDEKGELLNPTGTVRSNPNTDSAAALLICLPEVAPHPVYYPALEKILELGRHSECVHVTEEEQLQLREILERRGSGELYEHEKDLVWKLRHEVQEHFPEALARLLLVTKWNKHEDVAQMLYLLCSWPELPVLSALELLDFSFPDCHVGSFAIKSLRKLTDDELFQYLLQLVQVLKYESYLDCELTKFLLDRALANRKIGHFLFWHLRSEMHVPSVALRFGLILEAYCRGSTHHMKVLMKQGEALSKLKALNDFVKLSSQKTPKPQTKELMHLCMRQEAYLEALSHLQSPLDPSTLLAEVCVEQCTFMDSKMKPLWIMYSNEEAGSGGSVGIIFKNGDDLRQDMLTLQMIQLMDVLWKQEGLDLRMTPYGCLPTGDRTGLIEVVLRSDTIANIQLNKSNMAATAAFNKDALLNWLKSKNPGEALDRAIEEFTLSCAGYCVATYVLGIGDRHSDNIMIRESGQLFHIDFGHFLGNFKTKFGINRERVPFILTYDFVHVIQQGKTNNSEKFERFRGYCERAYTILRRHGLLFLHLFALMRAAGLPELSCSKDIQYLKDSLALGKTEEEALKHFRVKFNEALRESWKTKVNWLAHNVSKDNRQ
PI3Kdelta, sequence (P27986 whole entry partner, canonical isoform): as the sequence (P27986 whole entry partner, canonical isoform) above

Structure (SMILES): Cn1cc(-c2nc(N3CCC4(CCC(=O)N4CC(F)(F)F)CC3)cnc2C#N)cn1 [Compound 1-21, 3-(1-methyl-1H-pyrazol-4-yl)-5-[2-oxo-1-(2,2,2-trifluoroethyl)-1,8-diazaspiro[4.5]dec-8-yl]pyrazine-2-carbonitrile]
IC50 (PI3Kdelta): 37 nM | Selectivity versus PI3Kalpha (PI3Kalpha): >10

Structure (SMILES): CCCN1C(=O)OCC12CCN(c1cnc(C#N)c(-c3cnn(C)c3)n1)CC2 [Compound 1-22, 3-(1-methyl-1H-pyrazol-4-yl)-5-(2-oxo-1-propyl-3-oxa-1,8-diazaspiro[4.5]dec-8-yl)pyrazine-2-carbonitrile]
IC50 (PI3Kdelta): 30 nM | Selectivity versus PI3Kalpha (PI3Kalpha): >10

Structure (SMILES): Cn1cc(-c2nc(N3CCC4(CC3)COC(=O)N4CC3CCC3)cnc2C#N)cn1 [Compound 1-23, 5-[1-(cyclobutylmethyl)-2-oxo-3-oxa-1,8-diazaspiro[4.5]dec-8-yl]-3-(1-methyl-1H-pyrazol-4-yl)pyrazine-2-carbonitrile]
IC50 (PI3Kdelta): 18 nM | Selectivity versus PI3Kalpha (PI3Kalpha): >10

Structure (SMILES): Cn1cc(-c2nc(N3CCC4(CC3)COCC(=O)N4CC3CC3)cnc2C#N)cn1 [Compound 1-24, 5-[1-(cyclopropylmethyl)-2-oxo-4-oxa-1,9-diazaspiro[5.5]undec-9-yl]-3-(1-methyl-1H-pyrazol-4-yl)pyrazine-2-carbonitrile]
IC50 (PI3Kdelta): 10 nM | Selectivity versus PI3Kalpha (PI3Kalpha): >10

Structure (SMILES): Cn1cc(-c2nc(N3CCC(C)(N4CCOCC4)CC3)cnc2C#N)cn1 [Compound 1-25, 5-(4-methyl-4-morpholin-4-ylpiperidin-1-yl)-3-(1-methyl-1H-pyrazol-4-yl)pyrazine-2-carbonitrile]
IC50 (PI3Kdelta): 52 nM | Selectivity versus PI3Kalpha (PI3Kalpha): >10

Structure (SMILES): Cn1cc(-c2nc(N3CCC(C)(N4CCCCC4)CC3)cnc2C#N)cn1 [Compound 1-26, 5-(4′-methyl-1,4′-bipiperidin-1′-yl)-3-(1-methyl-1H-pyrazol-4-yl)pyrazine-2-carbonitrile]
IC50 (PI3Kdelta): 70 nM | Selectivity versus PI3Kalpha (PI3Kalpha): >10

Structure (SMILES): CO[C@H]1C[C@@H](C(=O)N2CCN(c3cnc(C#N)c(-c4cnn(C)c4)n3)C[C@H]2C)C1 [Compound 1-27, 5-{(3R)-4-[(cis-3-methoxycyclobutyl)carbonyl]-3-methylpiperazin-1-yl}-3-(1-methyl-1H-pyrazol-4-yl)pyrazine-2-carbonitrile]
IC50 (PI3Kdelta): 100 nM | Selectivity versus PI3Kalpha (PI3Kalpha): >10

Structure (SMILES): C[C@@H]1CN(c2cnc(C#N)c(-c3cnn(C)c3)n2)CCN1C(=O)C1CC(F)(F)C1 [Compound 1-28, 5-{(3R)-4-[(3,3-difluorocyclobutyl)carbonyl]-3-methylpiperazin-1-yl}-3-(1-methyl-1H-pyrazol-4-yl)pyrazine-2-carbonitrile]
IC50 (PI3Kdelta): 100 nM | Selectivity versus PI3Kalpha (PI3Kalpha): >10

Structure (SMILES): C[C@@H]1CN(c2cnc(C#N)c(-c3cnn(C)c3)n2)CCN1C(=O)[C@@H]1C[C@@H]1F [Compound 1-29, 5-[(3R)-4-{[(1S,2S)-2-fluorocyclopropyl]carbonyl}-3-methylpiperazin-1-yl]-3-(1-methyl-1H-pyrazol-4-yl)pyrazine-2-carbonitrile]
IC50 (PI3Kdelta): 29 nM | Selectivity versus PI3Kalpha (PI3Kalpha): >10

Structure (SMILES): CCC(=O)N1CCN(c2cnc(C#N)c(-c3cnn(C)c3)n2)C[C@H]1C [Compound 1-30, 5-[(3R)-3-methyl-4-propanoylpiperazin-1-yl]-3-(1-methyl-1H-pyrazol-4-yl)pyrazine-2-carbonitrile]
IC50 (PI3Kdelta): 150 nM | Selectivity versus PI3Kalpha (PI3Kalpha): >10

Structure (SMILES): C[C@@H]1CN(c2cnc(C#N)c(-c3cnn(C)c3)n2)CCN1C(=O)C1(C)CC1 [Compound 1-31, 5-{(3R)-3-methyl-4-[(1-methylcyclopropyl)carbonyl]piperazin-1-yl}-3-(1-methyl-1H-pyrazol-4-yl)pyrazine-2-carbonitrile]
IC50 (PI3Kdelta): 280 nM | Selectivity versus PI3Kalpha (PI3Kalpha): >10

Structure (SMILES): C[C@@H]1CN(c2cnc(C#N)c(-c3cnn(C)c3)n2)CCN1C(=O)N1CCCC1 [Compound 1-32, 3-(1-methyl-1H-pyrazol-4-yl)-5-[(3R)-3-methyl-4-(pyrrolidin-1-ylcarbonyl)piperazin-1-yl]pyrazine-2-carbonitrile]
IC50 (PI3Kdelta): 180 nM | Selectivity versus PI3Kalpha (PI3Kalpha): >10

Results, then the compound that gave them:

IC50 (PI3Kdelta): 300 nM | Selectivity versus PI3Kalpha (PI3Kalpha): >10
Structure (SMILES): C[C@@H]1CN(c2cnc(C#N)c(-c3cnn(C)c3)n2)CCN1C(=O)N1CC2(COC2)C1 [Compound 1-33, 5-[(3R)-3-methyl-4-(2-oxa-6-azaspiro[3.3]hept-6-ylcarbonyl)piperazin-1-yl]-3-(1-methyl-1H-pyrazol-4-yl)pyrazine-2-carbonitrile]

IC50 (PI3Kdelta): 210 nM | Selectivity versus PI3Kalpha (PI3Kalpha): >10
Structure (SMILES): C[C@@H]1CN(c2cnc(C#N)c(-c3cnn(C)c3)n2)CCN1C(=O)NCC1CC1 [Compound 1-34, (2R)-4-[5-cyano-6-(1-methyl-1H-pyrazol-4-yl)pyrazin-2-yl]-N-(cyclopropylmethyl)-2-methylpiperazine-1-carboxamide]

IC50 (PI3Kdelta): 110 nM | Selectivity versus PI3Kalpha (PI3Kalpha): >10
Structure (SMILES): CO[C@H]1CCN(C(=O)N2CCN(c3cnc(C#N)c(-c4cnn(C)c4)n3)C[C@H]2C)C1 [Compound 1-35, 5-[(3R)-4-{[(3S)-3-methoxypyrrolidin-1-yl]carbonyl}-3-methylpiperazin-1-yl]-3-(1-methyl-1H-pyrazol-4-yl)pyrazine-2-carbonitrile]

IC50 (PI3Kdelta): 160 nM | Selectivity versus PI3Kalpha (PI3Kalpha): >10
Structure (SMILES): COC1CN(C(=O)N2CCN(c3cnc(C#N)c(-c4cnn(C)c4)n3)C[C@H]2C)C1 [Compound 1-36, 5-{(3R)-4-[(3-methoxyazetidin-1-yl)carbonyl]-3-methylpiperazin-1-yl}-3-(1-methyl-1H-pyrazol-4-yl)pyrazine-2-carbonitrile]

IC50 (PI3Kdelta): 53 nM | Selectivity versus PI3Kalpha (PI3Kalpha): >10
Structure (SMILES): C[C@@H]1CN(c2cnc(C#N)c(-c3cnn(C)c3)n2)CCN1C(=O)N1CCC1 [Compound 1-37, 5-[(3R)-4-(azetidin-1-ylcarbonyl)-3-methylpiperazin-1-yl]-3-(1-methyl-1H-pyrazol-4-yl)pyrazine-2-carbonitrile]

IC50 (PI3Kdelta): 210 nM | Selectivity versus PI3Kalpha (PI3Kalpha): >10
Structure (SMILES): COC(=O)N1CCN(c2cnc(C#N)c(-c3cnn(C)c3)n2)C[C@H]1C [Compound 1-38, methyl (2R)-4-[5-cyano-6-(1-methyl-1H-pyrazol-4-yl)pyrazin-2-yl]-2-methylpiperazine-1-carboxylate]

IC50 (PI3Kdelta): 50 nM | Selectivity versus PI3Kalpha (PI3Kalpha): >10
Structure (SMILES): C[C@@H]1C[C@H]1C(=O)N1CCN(c2cnc(C#N)c(-c3cn[nH]c3)n2)C[C@H]1C [Compound 1-39, 5-[(3R)-3-methyl-4-{[(1R,2R)-2-methylcyclopropyl]carbonyl}piperazin-1-yl]-3-(1H-pyrazol-4-yl)pyrazine-2-carbonitrile]
